Source: PubChem BioAssay AID248 (DTP/NCI, 2004)
Where “and” joins values, the source holds several entries; their conditions need not be identical. Equal entries are not always repeated. Inconclusive results and toxic doses are left out. No stated cut-off is given here; in the data, active means T/C of 150% or more; inactive means T/C below 125%.

Tested on: L1210 leukemia ip in BDF1 mice, survival T/C
Assay: NCI In Vivo Anticancer Drug Screen. Data for tumor model L1210 Leukemia (intraperitoneal) in B6D2F1 (BDF1) mice
Settings: endpoint: mean survival time, higher = longer survival
In short: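 Tumor cells were implanted, animals were treated, and survival was followed. The result divides the treated measurement by the vehicle-control measurement.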

[1] = dose: 100.0 mg/kg/injection, schedule: Q01DX009 (ip), vehicle: Klucel (hydroxypropylcellulose) (HPC)
[2] = dose: 200.0 mg/kg/injection, schedule: Q01DX009 (ip), vehicle: Klucel (hydroxypropylcellulose) (HPC)
[3] = dose: 400.0 mg/kg/injection, schedule: Q01DX009 (ip), vehicle: Klucel (hydroxypropylcellulose) (HPC)
[4] = dose: 50.0 mg/kg/injection, schedule: Q01DX001 (ip), vehicle: carboxymethylcellulose (CMC)
[5] = dose: 100.0 mg/kg/injection, schedule: Q01DX001 (ip), vehicle: carboxymethylcellulose (CMC)
[6] = dose: 100.0 mg/kg/injection, schedule: Q04DX003 (ip), vehicle: saline with Tween-80
[7] = dose: 200.0 mg/kg/injection, schedule: Q04DX003 (ip), vehicle: saline with Tween-80
[8] = dose: 400.0 mg/kg/injection, schedule: Q04DX003 (ip), vehicle: saline with Tween-80
[9] = dose: 100.0 mg/kg/injection, schedule: Q04DX003 (ip), vehicle: saline
[10] = dose: 100.0 mg/kg/injection, schedule: Q01DX009 (ip), vehicle: saline with Tween-80
[11] = dose: 200.0 mg/kg/injection, schedule: Q01DX009 (ip), vehicle: saline with Tween-80
[12] = dose: 400.0 mg/kg/injection, schedule: Q01DX009 (ip), vehicle: saline with Tween-80

Measured: T/C

CC(=O)C(Sc1ccccc1[N+](=O)[O-])C(C)=O.[Co]
inactive: dose: 50.0 mg/kg/injection, schedule: Q01DX001 (ip), vehicle: other 92 % of control | dose: 100.0 mg/kg/injection, schedule: Q01DX001 (ip), vehicle: other 92 % of control | dose: 200.0 mg/kg/injection, schedule: Q01DX001 (ip), vehicle: other 92 % of control | dose: 400.0 mg/kg/injection, schedule: Q01DX001 (ip), vehicle: other 100 % of control

CS\C(N)=N/N=C/C(C)=N/N=C(/N)SC
inactive: dose: 15.0 mg/kg/injection, schedule: Q01DX Z (ip), vehicle: saline 98 % of control | dose: 30.0 mg/kg/injection, schedule: Q01DX Z (ip), vehicle: saline 100 % of control | dose: 60.0 mg/kg/injection, schedule: Q01DX Z (ip), vehicle: saline 100 % of control and 105 % of control | dose: 120.0 mg/kg/injection, schedule: Q01DX Z (ip), vehicle: saline 100 % of control and 105 % of control | dose: 240.0 mg/kg/injection, schedule: Q01DX Z (ip), vehicle: saline 100 % of control | dose: 480.0 mg/kg/injection, schedule: Q01DX Z (ip), vehicle: saline 105 % of control

COc1ccc([N+](=O)[O-])cc1NC(=O)Nc1ccc(I)cc1
inactive: [1] 103 % of control | [2] 95 % of control | [3] 103 % of control

CCC1CC2c3cc(OC)c(OC)cc3CCN2CC1(O)c1ccccc1 (stereo not drawn)
inactive: dose: 25.0 mg/kg/injection, schedule: Q01DX001 (ip), vehicle: carboxymethylcellulose (CMC) 92 % of control | dose: 25.0 mg/kg/injection, schedule: Q04DX003 (ip), vehicle: carboxymethylcellulose (CMC) 97 % of control | [4] 95 % of control | dose: 50.0 mg/kg/injection, schedule: Q04DX003 (ip), vehicle: carboxymethylcellulose (CMC) 97 % of control | [5] 103 % of control and 109 % of control | dose: 100.0 mg/kg/injection, schedule: Q04DX003 (ip), vehicle: carboxymethylcellulose (CMC) 100 % of control

COCc1nc2ccccc2[nH]1
inactive: [6] 106 % of control | [7] 97 % of control | [8] 93 % of control

Clc1ccccc1Nc1ccnc(SCc2ccccc2)n1
inactive: dose: 25.0 mg/kg/injection, schedule: Q01DX001 (ip), vehicle: DMSO 93 % of control | dose: 25.0 mg/kg/injection, schedule: Q04DX003 (ip), vehicle: DMSO 96 % of control | dose: 50.0 mg/kg/injection, schedule: Q01DX001 (ip), vehicle: DMSO 100 % of control | dose: 50.0 mg/kg/injection, schedule: Q04DX003 (ip), vehicle: DMSO 95 % of control | dose: 100.0 mg/kg/injection, schedule: Q01DX001 (ip), vehicle: DMSO 88 % of control and 92 % of control | dose: 100.0 mg/kg/injection, schedule: Q04DX003 (ip), vehicle: DMSO 93 % of control

Nc1cccc(COc2ccccc2)c1
inactive: [9] 90 % of control | dose: 200.0 mg/kg/injection, schedule: Q04DX003 (ip), vehicle: saline 92 % of control

CN1C2CCC1CC(=C(C#N)C(N)=O)C2
inactive: dose: 3.13 mg/kg/injection, schedule: Q01DX009 (ip), vehicle: Klucel (hydroxypropylcellulose) (HPC) 100 % of control | dose: 3.13 mg/kg/injection, schedule: Q04DX003 (ip), vehicle: Klucel (hydroxypropylcellulose) (HPC) 107 % of control | dose: 6.25 mg/kg/injection, schedule: Q01DX009 (ip), vehicle: Klucel (hydroxypropylcellulose) (HPC) 98 % of control | dose: 6.25 mg/kg/injection, schedule: Q04DX003 (ip), vehicle: Klucel (hydroxypropylcellulose) (HPC) 102 % of control | dose: 12.5 mg/kg/injection, schedule: Q04DX003 (ip), vehicle: Klucel (hydroxypropylcellulose) (HPC) 104 % of control and 88 % of control

NNc1cccc(C(F)(F)F)c1
inactive: dose: 25.0 mg/kg/injection, schedule: Q01DX009 (ip), vehicle: saline with Tween-80 94 % of control | dose: 25.0 mg/kg/injection, schedule: Q04DX003 (ip), vehicle: saline with Tween-80 100 % of control | dose: 50.0 mg/kg/injection, schedule: Q01DX009 (ip), vehicle: saline with Tween-80 96 % of control | dose: 50.0 mg/kg/injection, schedule: Q04DX003 (ip), vehicle: saline with Tween-80 95 % of control | [6] 95 % of control and 98 % of control

Cc1ccc(C(C)(C)Cl)cc1O
inactive: [10] 93 % of control | [6] 96 % of control | [11] 93 % of control | [7] 102 % of control | [12] 98 % of control | [8] 102 % of control

CN(C)C1CC[N-]CC1.CN(C)C1CC[N-]CC1.[Cl][Pt+2][Cl]
inactive: dose: 25.0 mg/kg/injection, schedule: Q01DX009 (ip), vehicle: saline 110 % of control | dose: 50.0 mg/kg/injection, schedule: Q01DX009 (ip), vehicle: saline 110 % of control | [9] 92 % of control

CC(C)=CCC1=C(O)C(C)=CC(=O)C1=O
inactive: dose: 100.0 mg/kg/injection, schedule: Q01DX001 (ip), vehicle: water 97 % of control | dose: 200.0 mg/kg/injection, schedule: Q01DX001 (ip), vehicle: water 94 % of control | dose: 400.0 mg/kg/injection, schedule: Q01DX001 (ip), vehicle: water 97 % of control

Cc1cccc(NC(=O)Oc2ccc3c(C)cc(=O)oc3c2)c1
inactive: [1] 110 % of control | dose: 100.0 mg/kg/injection, schedule: Q04DX002 (ip), vehicle: Klucel (hydroxypropylcellulose) (HPC) 93 % of control | [2] 98 % of control | dose: 200.0 mg/kg/injection, schedule: Q04DX002 (ip), vehicle: Klucel (hydroxypropylcellulose) (HPC) 96 % of control | [3] 94 % of control | dose: 400.0 mg/kg/injection, schedule: Q04DX002 (ip), vehicle: Klucel (hydroxypropylcellulose) (HPC) 93 % of control

CC(=S)Nc1ccc2ccccc2c1
inactive: [10] 94 % of control | [6] 101 % of control | [11] 94 % of control | [7] 104 % of control | [12] 109 % of control | [8] 101 % of control

CCOc1cc(/C=N\Nc2nncn2N)c(C)cc1N(CCCl)CCCl
inactive: dose: 1.3 mg/kg/injection, schedule: Q01DX015 (ip), vehicle: carboxymethylcellulose (CMC) 107 % of control | dose: 1.5 mg/kg/injection, schedule: Q01DX015 (ip), vehicle: carboxymethylcellulose (CMC) 120 % of control | dose: 2.6 mg/kg/injection, schedule: Q01DX015 (ip), vehicle: carboxymethylcellulose (CMC) 100 % of control | dose: 15.0 mg/kg/injection, schedule: Q01DX015 (ip), vehicle: carboxymethylcellulose (CMC) 102 % of control and 109 % of control | dose: 22.0 mg/kg/injection, schedule: Q01DX001 (ip), vehicle: carboxymethylcellulose (CMC) 118 % of control | [4] 110 % of control | [5] 123 % of control | dose: 200.0 mg/kg/injection, schedule: Q01DX001 (ip), vehicle: carboxymethylcellulose (CMC) 89 % of control

COC(=O)N1C(c2ccc(OC)cc2)CS1(=O)=O (stereo not drawn)
inactive: dose: 75.0 mg/kg/injection, schedule: Q04DX003 (ip), vehicle: Klucel (hydroxypropylcellulose) (HPC) 101 % of control | dose: 100.0 mg/kg/injection, schedule: Q01DX001 (ip), vehicle: Klucel (hydroxypropylcellulose) (HPC) 97 % of control | dose: 150.0 mg/kg/injection, schedule: Q04DX003 (ip), vehicle: Klucel (hydroxypropylcellulose) (HPC) 98 % of control | dose: 200.0 mg/kg/injection, schedule: Q01DX001 (ip), vehicle: Klucel (hydroxypropylcellulose) (HPC) 102 % of control | dose: 300.0 mg/kg/injection, schedule: Q04DX003 (ip), vehicle: Klucel (hydroxypropylcellulose) (HPC) 116 % of control | dose: 400.0 mg/kg/injection, schedule: Q01DX001 (ip), vehicle: Klucel (hydroxypropylcellulose) (HPC) 97 % of control
